{"source": "patent US12285434B2", "about": "“Therapeutic, preventive, or improvement agent for inflammatory disease and allergic disease” (The University of Tokyo, priority 2018, dated 2025)", "key": {"[1]": {"test_system": "DSS-induced colitis model mice", "test": "DSS-induced colitis: colitis severity (body weight, fecal score, colon length)", "assay_type": "in vivo, mouse (C57BL/6)", "settings": "Day 14; 50 μg/kg/day intraperitoneally on Days 9, 11 and 13", "excerpt": "(§1) C57BL/6 strain mice (male, 8 to 12 weeks old) were fed with water containing 2% dextran sodium sulfate (manufactured by MP Bio, hereinafter sometimes referred to as “DSS”) for 4 days to prepare colitis model mice (hereinafter, sometimes referred to as “colitis group” in Examples 7 to 10). The mice taken with DSS for 4 days were fed with normal water from Day 5. The DSS intake start date was defined as Day 1 of the test, and the day before the DSS intake start date was defined as Day 0 of the test. In addition, a group in which C57BL/6 strain mice (male, 8 to 12 weeks old) were fed with normal water was defined as a “healthy group” (the same applies to Examples 8 to 10).\nIn order to evaluate colitis severity, the fecal condition was evaluated and the body weight was measured daily for the colitis model mice and healthy group prepared in the above item (1). The fecal condition was evaluated based on the following five-grade fecal scores. Specifically, the fecal scores were 0: normal; 1: soft but still formed; 2: very soft; 3: diarrhea; and 4: bloody feces. In addition, the colon length was measured as an index of the colitis severity.\n(§2) To investigate the role of 5,6-DiHETE in the healing phase, the colitis model mice prepared in Example 7(1) were intraperitoneally injected with 5,6-DiHETE (manufactured by Cayman Chemical) (50 μg/kg/day) or HC-067047 (manufactured by Cayman Chemical) (1 mg/kg/day) on Days 9, 11 and 13 of the test (hereinafter, sometimes referred to as “5,6-DiHETE-administered group” and “HC-067047-administered group,” respectively, in Examples 9 and 10). HC-067047 is known to inhibit an increase of calcium ion concentration in endothelial cells.\nThe colitis severity was determined according to the index and criteria described in Example 7(2)."}, "[2]": {"test_system": "acute lung injury model mice", "test": "Hydrochloric acid-induced acute lung injury (pneumonia, pulmonary edema)", "assay_type": "in vivo, mouse", "settings": "50 μg/kg intraperitoneally 5 minutes before and 3 hours after HCl", "protocol": "Fifty (50) μL of 0.1 N hydrochloric acid was nasally administered to 57BL/6 strain mice (male, 8 to 12 weeks old) to prepare acute lung injury model mice (hereinafter, sometimes referred to as “pneumonia group”). On the other hand, 50 μg/kg 5,6-DiHETE (manufactured by Cayman Chemical) was intraperitoneally administered 5 minutes before and 3 hours after the nasal administration of hydrochloric acid (hereinafter, sometimes referred to as “5,6-DiHETE-administered group”).\nThe lungs of the pneumonia group and the 5,6-DiHETE-administered group were collected 6 hours after the nasal administration of hydrochloric acid, fixed in 4% paraformaldehyde for 24 hours, embedded in paraffin, and cut into 2 μm-thick sections. Hematoxylin staining and eosin staining of these sections were performed according to a conventional method.\nThe wet/dry weight ratio was used as an index of pulmonary edema (Rachmilewitz D. et al., Gastroenterology, 97: 326-337(1989)). Specifically, 6 hours after the nasal administration of hydrochloric acid, the lungs were collected and the wet weights were measured. The lungs were then dried at 60° C. for 24 hours, and, thereafter, the dry weight was measured. In addition, the ventilatory capacity of the lungs was evaluated as an index of pneumonia using arterial blood oxygen saturations."}, "[3]": {"test_system": "calcium ion concentration in HUVECs", "test": "Histamine-induced increase of calcium ion concentration (fura-2)", "assay_type": "cell-based, human", "settings": "histamine 10 μM", "protocol": "These cells (passages 4 to 9) were used for experiments after 4-hour starvation in EBM-2 (manufactured by Lonza K.K.) containing 2% FBS.\nHUVECs were incubated with a calcium fluorescence indicator (3 μg fura-2/AM containing 0.11% Cremophor EL) for 30 minutes and washed with an HEPES buffer three times. […] Then, 5 minutes after the addition of each reagent, histamine was added so as to attain 10 μM. In addition, a group to which histamine was added so as to attain 10 μM without pretreatment was also prepared. A cover slip was placed in a specialized airtight chamber mounted onto the stage of a microscope maintained at 37° C. The HUVECs were excited at 340 nm and 380 nm and the emitted fluorescence signal was measured every 3 seconds at 510 nm for 60 seconds. The fluorescence ratio (R:F340/F380) was determined using a fluorescence imaging system (AQUACOSMOS, manufactured by Hamamatsu Photonics K.K.). After the experiment, 1 μM ionomycin was added and the fluorescence changes were measured in the presence of 0 or 1.5 mM calcium ions. The calcium ion concentration was indicated as A fluorescence ratio. AUC was calculated 1 minute after each stimulus to evaluate the A fluorescence ratio. It is known that the increase of calcium ion concentration in endothelial cells promotes NO production by eNOS phosphorylation and […] smooth muscle cells (Garcia-Cardena, G. et al., Nature, 392: 821-824(1998); and Luo, Z. et al., The Journal of clinical investigation, 106: 493-499(2000))."}, "[4]": {"test_system": "DSS-induced colitis model mice", "test": "DSS-induced colitis: histologic score and colon edema (wet/dry weight ratio)", "assay_type": "in vivo, mouse (C57BL/6)", "settings": "Day 14; 50 μg/kg/day intraperitoneally on Days 9, 11 and 13", "excerpt": "as §1, §2\nDistal colon sections on Day 14 of the test in the healthy group, colitis group, 5,6-DiHETE-administered group and HC-067047-administered group were fixed in 4% paraformaldehyde for 24 hours, embedded in paraffin and cut into 2 μm-thick sections. Hematoxylin staining and eosin staining of these sections were performed according to a conventional method. The histologic score was then decided according to the description of Kruschewski M. et al., Digestive Diseases and Sciences, 46: 2336-2343 (2001) to evaluate the colitis severity.\nThe wet/dry weight ratio was used as an index of colon edema (Rachmilewitz D. et al., Gastroenterology, 97: 326-337(1989)). Specifically, the distal colon was collected, and the wet weight was measured. The distal colon was then dried at 60 C for 24 hours, and, thereafter, the dry weight was measured."}}}
{"smiles": "CC/C=C\\C/C=C\\C/C=C\\C/C=C\\C[C@@H](O)[C@@H](O)CCCC(=O)O", "note": "(racemic) [5,6-DiHETE, (±) 5,6-dihydroxy-8Z,11Z,14Z,17Z-eicosatetraenoic acid]", "values": [{"measurement": "colon length", "setting": "[1]", "result": "6.4±0.1", "unit": "cm"}, {"measurement": "fecal score", "setting": "[1]", "result": "decreased to the normal level"}, {"measurement": "relative body weight, of the initial weight", "setting": "[1]", "result": "115.2±2.5", "unit": "%"}, {"measurement": "decrease in arterial blood oxygen saturation", "setting": "[2]", "result": "suppressed"}, {"measurement": "epithelial damage and neutrophil tissue infiltration (HE-stained lung)", "setting": "[2]; 6 hours", "result": "suppressed"}, {"measurement": "moisture content of the lung tissue (wet/dry weight ratio)", "setting": "[2]; 6 hours", "result": "significantly reduced except one case"}, {"measurement": "reddishness of lung tissue (appearance)", "setting": "[2]; 6 hours", "result": "improved"}, {"measurement": "calcium ion concentration, AUC at 1 minute after stimulation", "setting": "[3]; pretreatment 0.03 μM", "result": "7.8±2.3"}, {"measurement": "calcium ion concentration, AUC at 1 minute after stimulation", "setting": "[3]; pretreatment 0.1 μM", "result": "5.9±1.5"}, {"measurement": "calcium ion concentration, AUC at 1 minute after stimulation", "setting": "[3]; pretreatment 0.3 μM", "result": "1.8±1.1"}, {"measurement": "colon edema, wet/dry weight ratio", "setting": "[4]", "result": "5.2±0.2"}, {"measurement": "histologic score of colitis", "setting": "[4]", "result": "3.3±0.5"}]}
